In PubChem BioAssay AID1963968 (Molecular Pharmacology Branch, DTP, NCI, 2024):

System: 945468-187-T-J3-PDC spheroids with HUVEC/MSC, viability
Assay: Anticancer human tumor 945468-187-T-J3-PDC patient-derived rectal carcinoma cell line growth inhibition [PI3K]
Conditions: for IC50: curve of first compound; for viability, T/C: stronger effect = lower value
Method in brief: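 Three cell types, namely tumor cells, endothelial cells and mesenchymal stem cells, formed each spheroid. Combinations with four PI3K inhibitors were screened at clinically achievable concentrations decreasing by half-log, and spheroid viability was recorded.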

[1] = second compound 0.00316 µM, first compound 0.0316 µM
[2] = second compound 0.00316 µM, first compound 0.1 µM
[3] = second compound 0.00316 µM, first compound 0.316 µM
[4] = second compound 0.00316 µM, first compound 1 µM
[5] = second compound 0.00316 µM, first compound 3.16 µM
[6] = second compound 0.00316 µM, first compound 10 µM
[7] = second compound 0.01 µM, first compound 0.0316 µM
[8] = second compound 0.01 µM, first compound 0.1 µM
[9] = second compound 0.01 µM, first compound 0.316 µM
[10] = second compound 0.01 µM, first compound 1 µM
[11] = second compound 0.01 µM, first compound 3.16 µM
[12] = second compound 0.01 µM, first compound 10 µM
[13] = second compound 0.0316 µM, first compound 0.0316 µM
[14] = second compound 0.0316 µM, first compound 0.1 µM
[15] = second compound 0.0316 µM, first compound 0.316 µM
[16] = second compound 0.0316 µM, first compound 1 µM
[17] = second compound 0.0316 µM, first compound 3.16 µM
[18] = second compound 0.0316 µM, first compound 10 µM
[19] = second compound 0.1 µM, first compound 0.0316 µM
[20] = second compound 0.1 µM, first compound 0.1 µM
[21] = second compound 0.1 µM, first compound 0.316 µM
[22] = second compound 0.1 µM, first compound 1 µM
[23] = second compound 0.1 µM, first compound 3.16 µM
[24] = second compound 0.1 µM, first compound 10 µM
[25] = second compound 0.316 µM, first compound 0.0316 µM
[26] = second compound 0.316 µM, first compound 0.1 µM
[27] = second compound 0.316 µM, first compound 0.316 µM
[28] = second compound 0.316 µM, first compound 1 µM
[29] = second compound 0.316 µM, first compound 3.16 µM
[30] = second compound 0.316 µM, first compound 10 µM
[31] = second compound 1 µM, first compound 0.0316 µM
[32] = second compound 1 µM, first compound 0.1 µM
[33] = second compound 1 µM, first compound 0.316 µM
[34] = second compound 1 µM, first compound 1 µM
[35] = second compound 1 µM, first compound 3.16 µM
[36] = second compound 1 µM, first compound 10 µM
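Also: spheroids exposed to agents for 7 days before viability read.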
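For viability, T/C in this document: 100% = DMSO vehicle control viability.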

With `C#Cc1c(F)ccc2cc(O)cc(-c3ncc4c(N5CC6CCC(C5)N6)nc(OCC56CCCN5CC(F)C6)nc4c3F)c12` (centres undefined) + COc1c(OCCCN2CCOCC2)ccc2c3n(c(=NC(=O)c4cnc(N)nc4)nc12)CCN3 the IC50 (second compound 0.00316 µM) was > 10 µM, the IC50 (second compound 0.01 µM) was > 10 µM and the IC50 (second compound 0.0316 µM) was > 10 µM. The IC50 (second compound 0.1 µM) was < 0.0316 µM, the IC50 (second compound 0.316 µM) was < 0.0316 µM and the IC50 (second compound 1 µM) was < 0.0316 µM. It also gave a viability, T/C [1] of 102%, a viability, T/C [2] of 95.9% and a viability, T/C [3] of 98.6%. The viability, T/C [4] was 94.2%, the viability, T/C [5] was 108% and the viability, T/C [6] was 117%. It also gave a viability, T/C [7] of 98.1%, a viability, T/C [8] of 97.2% and a viability, T/C [9] of 96.6%. It also gave a viability, T/C [10] of 89%, a viability, T/C [11] of 104% and a viability, T/C [12] of 98%. For the same molecule, the viability, T/C [13] was 79.6%, the viability, T/C [14] was 88.2% and the viability, T/C [15] was 91.3%. It also gave a viability, T/C [16] of 87.2%, a viability, T/C [17] of 69.9% and a viability, T/C [18] of 57.6%. The viability, T/C [19] was 37.4%, the viability, T/C [20] was 42.2% and the viability, T/C [21] was 46.3%. For the same molecule, the viability, T/C [22] was 39%, the viability, T/C [23] was 34.7% and the viability, T/C [24] was 18.5%. It also gave a viability, T/C [25] of 22.8%, a viability, T/C [26] of 22.4% and a viability, T/C [27] of 21.6%. It also gave a viability, T/C [28] of 13.1%, a viability, T/C [29] of 17.2% and a viability, T/C [30] of 5.33%. The viability, T/C [31] was 16.2%, the viability, T/C [32] was 14.6% and the viability, T/C [33] was 14.8%. It also gave a viability, T/C [34] of 9.87%, a viability, T/C [35] of 6.91% and a viability, T/C [36] of 3.67%.
With `C=CC(=O)N1CCN(c2nc(=O)n(-c3c(C)ccnc3C(C)C)c3nc(-c4c(O)cccc4F)c(F)cc23)C(C)C1` (centres undefined) + COc1c(OCCCN2CCOCC2)ccc2c3n(c(=NC(=O)c4cnc(N)nc4)nc12)CCN3 the IC50 (second compound 0.00316 µM) was > 10 µM, the IC50 (second compound 0.01 µM) was > 10 µM and the IC50 (second compound 0.0316 µM) was > 10 µM. For the same molecule, the IC50 (second compound 0.1 µM) was < 0.0316 µM, the IC50 (second compound 0.316 µM) was < 0.0316 µM and the IC50 (second compound 1 µM) was < 0.0316 µM. It also gave a viability, T/C [1] of 97.2%, a viability, T/C [2] of 109% and a viability, T/C [3] of 125%. The viability, T/C [4] was 89.9%, the viability, T/C [5] was 95.8% and the viability, T/C [6] was 99.4%. For the same molecule, the viability, T/C [7] was 105%, the viability, T/C [8] was 90% and the viability, T/C [9] was 94.1%. The viability, T/C [10] was 97.5%, the viability, T/C [11] was 101% and the viability, T/C [12] was 92.4%. The viability, T/C [13] was 95.4%, the viability, T/C [14] was 86.7% and the viability, T/C [15] was 86.6%. For the same molecule, the viability, T/C [16] was 88.2%, the viability, T/C [17] was 95.1% and the viability, T/C [18] was 96.9%. It also gave a viability, T/C [19] of 49.2%, a viability, T/C [20] of 48.2% and a viability, T/C [21] of 57.6%. For the same molecule, the viability, T/C [22] was 62%, the viability, T/C [23] was 75.2% and the viability, T/C [24] was 74.3%. For the same molecule, the viability, T/C [25] was 20.3%, the viability, T/C [26] was 20.9% and the viability, T/C [27] was 21.1%. It also gave a viability, T/C [28] of 22.6%, a viability, T/C [29] of 22.9% and a viability, T/C [30] of 28.9%. The viability, T/C [31] was 17%, the viability, T/C [32] was 18.3% and the viability, T/C [33] was 14.3%. For the same molecule, the viability, T/C [34] was 15.5%, the viability, T/C [35] was 17.5% and the viability, T/C [36] was 19%.
